The values that follow come from publication PMC5569068, “Potential inhibitors designed against NDM-1 type metallo-β-lactamases: an attempt to enhance efficacies of antibiotics against multi-drug-resistant bacteria” (Scientific Reports, 2017).

Test [1] deals with E. coli DH5α transformed with recombinant NDM-1 (pQE-2- NDM-1). Briefly: microbe, parasite or virus in culture. It is filed as cell-based. The settings on record: for Minimum inhibitory concentration: (pQE-2- NDM-1) DH5α; for MIC: Escherichia coli, read-out: Minimum inhibitory concentration; for MIC of antibiotic when combined with each of the five molecules: bla NDM-1 clone, combined with M1, M17, M21, M61 or M75. On the procedure: (§1) The MIC was determined for E. coli DH5α cells, E. coli DH5α cells with vector and E. coli DH5α cells with bla NDM-1 carrying vectors. […] We next assayed the activities of these drugs in combination with novel screened molecules.
(§2) The MICs of four antibiotics were calculated (Table 4).

The test system of test [2] is original DH5α (with null vector) (pQE-2- Original). Kind of test: microbe, parasite or virus in culture. The settings on record: (pQE-2- Original) DH5α; for MIC: Escherichia coli, read-out: Minimum inhibitory concentration. It is filed as cell-based, E. coli. On the procedure:
as §1, §2

Regarding `CO[C@@]1(NC(=O)Cc2cccs2)C(=O)N2C(C(=O)O)=C(COC(N)=O)CS[C@@H]21` [Cefoxitin], in test [1], the Minimum inhibitory concentration came out at 16.0 µg/mL, the MIC stood at 16 µg/mL and the “MIC of antibiotic when combined with each of the five molecules” value (shortened to “MIC of antibiotic when combined”) is 8 µg/mL. Also, the MIC in test [2] amounted to 2 µg/mL.

For `CC(C)(O/N=C(\C(=O)N[C@@H]1C(=O)N2C(C(=O)[O-])=C(C[n+]3ccccc3)CS[C@H]12)c1csc(N)n1)C(=O)O` [Ceftazidime], in test [1], the Minimum inhibitory concentration stood at 8.00 µg/mL, the MIC turned out to be 8 µg/mL and the “MIC of antibiotic when combined” value worked out at 4 µg/mL. Moreover, in test [2], the MIC is 0.25 µg/mL.

Regarding `CO/N=C(\C(=O)N[C@@H]1C(=O)N2C(C(=O)O)=C(COC(C)=O)CS[C@H]12)c1csc(N)n1` [Cephotaxime], the figures for the Minimum inhibitory concentration in test [1] and in test [2] were 512 µg/mL and 0.25 µg/mL, respectively.

On to `C[C@@H](O)[C@H]1C(=O)N2C(C(=O)O)=C(SCCN=CN)C[C@H]12` [Imipenem], for which, in test [1], the Minimum inhibitory concentration came to 2.00 µg/mL, the MIC stood at 2 µg/mL and the “MIC of antibiotic when combined” value turned out to be 1 µg/mL. In test [2], the MIC is 0.5 µg/mL.

For `C[C@@H](O)[C@H]1C(=O)N2C(C(=O)O)=C(S[C@@H]3CN[C@H](C(=O)N(C)C)C3)[C@H](C)[C@H]12` [Meropenem], in test [1], the Minimum inhibitory concentration came out at 2.00 µg/mL, the MIC was found to be 2 µg/mL and the “MIC of antibiotic when combined” value was determined as 1 µg/mL. Further, in test [2], the MIC came to 0.5 µg/mL.
